Experimental data: PMC10931745 (International Journal of Molecular Sciences, 2024)
Where two headings read alike, the source gives them in different places.

Key:
[1] = tested on: NO production in LPS-stimulated RAW 264.7 macrophages; experiment: Griess assay, NO production; type: cell-based, murine; settings: 25 µM, LPS 1 µg/mL, 24 h
Procedure: The Griess assay was performed using RAW 264.7 murine macrophages to study the anti-inflammatory activity in terms of NO production. RAW 264.7 cells were plated in the 48 multi-wells and, after 24 h, treated with the tested molecules (25 µM) and the lipopolysaccharide (LPS, Sigma Aldrich, Milan, Italy) at a final concentration of 1 µg/mL. LPS is able to induce inflammation by stimulating NO production in immune system cells such as macrophages. After 24 h, the cell medium Griess reagent (Sigma Aldrich, Milan, Italy) was mixed in with a ratio of 1:1. The Griess reagent allowed for the quantification of NO released by macrophages in the treatment medium. The mixture was left for 30 min under agitation and, subsequently, the absorbance at 540 nm was measured using a multiplate reader. The obtained absorbance allowed us to calculate the NO production % compared to the absorbance obtained for the positive control, in which the cells were treated with LPS.

[2] = tested on: COX-1 expression in RAW 264.7 macrophages; experiment: Immunofluorescence, COX-1 expression; type: cell-based, murine; settings: 25 µM, co-treated with LPS 1 µg/mL
Procedure: (§1) After a PBS wash, cells were fixed using cold methanol (15 min at −20 °C) and incubated overnight at 4 °C with the primary antibodies raised against NF-κB, iNOS, TNF-α, and COX-1 and 2 (Santa Cruz Biotechnology Inc., Santa Cruz, CA, USA) diluted in BSA 2%, as previously described. […] DAPI (Sigma Aldrich, Milan, Italy) 0.2 µg/mL was added for 10 min for nuclei counterstaining. A fluorescence microscope (Leica DM 6000) was used for visualizing images, and LAS-X software 3.5.7.23225 was used for acquisition and processing.

[3] = tested on: Klebsiella pneumoniae (ATCC 13883); experiment: MIC/MBC broth dilution; type: cell-based
Procedure: (§2) The bacterial strains used for MIC and MBC value determinations expressed as µg/mL by the broth dilution method, according to CLSI guidelines, were the following:
(§3) -4 Gram-negative: Escherichia coli (ATCC® 25922^TM) and Klebsiella pneumoniae (ATCC® 13883^TM);
(§4) Increasing concentrations of the complexes (50, 70, 100, 150, and 200 µg/mL) were incubated with bacteria plated in 96-well microplates at 37 °C overnight as already reported, and then bacterial growth was checked at a wavelength of 600 nm using a Multiskan spectrophotometer (model Multiskan Ex Microplate; Thermo Scientific, Nyon, Switzerland). MIC or MBC values were obtained by comparing cell density with a positive control (bacterial cells grown in LB medium were added with only the vehicle, DMSO). The results were representative of three independent experiments performed in triplicate. Ampicillin, Gentamicin, and Cephalosporin (Sigma Aldrich A9393) were used as the control for strain sensitivity.

[4] = tested on: Escherichia coli (ATCC 25922); experiment: MIC/MBC broth dilution; type: cell-based
Procedure: as §2, §3, §4

[5] = tested on: MCF-7; experiment: MTT cell viability assay; type: cell-based, human; settings: 72 h
Procedure: (§5) The cell lines used were purchased from American Type Culture Collection (ATCC, Manassas, VA, USA). Human breast cancer cells MCF-7 and MDA-MB-231, human mammary epithelial cell line MCF-10A, and mouse BALB/3T3 embryonic fibroblasts were cultured as already described by some of us. The murine macrophage cell line RAW 264.7 was maintained in Dulbecco’s Modified Eagle’s Medium (DMEM) high glucose (4.5 g/L) supplemented with 10% Fetal Bovine Serum (FBS), 1% L-glutamine, and 100 units/mL of penicillin/streptomycin. The cell cultures were maintained at the temperature of 37 °C in a humidified atmosphere containing 5% CO2.
(§6) The 3-(4,5-dimethylthiazol-2-yl)-2,5-diphenyl-2H-tetrazolium bromide (MTT) assay (Sigma Aldrich (St. Louis, MO, USA)) was carried out to study the in vitro anticancer activities of the complexes, following the previously reported protocol. The cells were incubated for 72 h with different concentrations of the tested compounds (0.1, 1, 10, 25, 50, 100, and 500 µM) and the IC50 values were calculated from the percent (%) of control using the software GraphPad Prism 9 (GraphPad Software, La Jolla, CA, USA).

[6] = tested on: MDA-MB-231; experiment: MTT cell viability assay; type: cell-based, human; settings: 72 h
Procedure: as §5, §6

[7] = ABTS radical scavenging assay; type: biochemical
Procedure: The radical scavenging properties of the complexes on a 2,20-azino-bis(3-ethylbenzothiazoline-6-sulfonate) radical cation (ABTS^+) were evaluated as previously described.
All the complexes were used at different concentrations (5, 10, 25, 50, and 100 µg/mL) and the ABTS radical scavenging activity, measured at 730 nm using a microplate reader, was expressed as inhibition percentages (%IABTS) compared tothe control, according to the following expression:(3) IABTS (%)=ABSCTRL−ABSsample/ABSCTRL∗100 where ABSCTRL and ABSsample are the absorbance at 730 nm in the control and in the presence of samples, respectively.
IC50 values were calculated from the %IABTS using GraphPad Prism 9 software (GraphPad Inc., San Diego, CA, USA). Trolox was employed as a positive control, while caffeine and theophylline were reference compounds.

[8] = tested on: COX-2 expression in RAW 264.7 macrophages; experiment: Immunofluorescence, COX-2 expression; type: cell-based, murine; settings: 25 µM, co-treated with LPS 1 µg/mL
Procedure: as §1

[9] = tested on: NF-κB localization in RAW 264.7 macrophages; experiment: Immunofluorescence, NF-κB localization; type: cell-based, murine; settings: 25 µM, co-treated with LPS 1 µg/mL
Procedure: as §1

[10] = tested on: human mammary epithelial cell line MCF-10A; experiment: MTT assay, toxicity towards normal cells; type: cell-based; settings: 72 h
Procedure: as §5, §6

[11] = tested on: iNOS expression in RAW 264.7 macrophages; experiment: Immunofluorescence, iNOS expression; type: cell-based, murine; settings: 25 µM, co-treated with LPS 1 µg/mL
Procedure: as §1

[12] = tested on: Salmonella typhimurium (ATCC 14028); experiment: MIC/MBC broth dilution; type: cell-based
Procedure: as §2
as §4, with “The results were representative of three independent experiments performed in triplicate.” left out

[13] = tested on: Pseudomonas aeruginosa (ATCC 15442); experiment: MIC/MBC broth dilution; type: cell-based
Procedure: as §2
as §4, with “The results were representative of three independent experiments performed in triplicate.” left out

[14] = tested on: Enterococcus faecalis (ATCC 19433); experiment: MIC/MBC broth dilution; type: cell-based
Procedure: as §2
(§7) -3 Gram-positive: Enterococcus faecalis (ATCC® 19433^TM), Staphylococcus aureus (ATCC® 23235^TM), and Staphylococcus epidermidis (ATCC® 14990™).
as §4

[15] = tested on: Staphylococcus epidermidis (ATCC 14990); experiment: MIC/MBC broth dilution; type: cell-based
Procedure: as §2, §7, §4

[16] = tested on: Staphylococcus aureus (ATCC 23235); experiment: MIC/MBC broth dilution; type: cell-based
Procedure: as §2, §7, §4

[17] = DPPH radical scavenging assay; type: biochemical
Procedure: The radical scavenging properties of the complexes on the 1,1-diphenyl-2-picrylhydrazil (DPPH) radical were evaluated as previously described.
All the complexes were used at different concentrations (10, 25, 50, 100, and 200 µg/mL) and the DPPH radical scavenging activity, measured at 517 nm using a microplate reader, was expressed as inhibition percentages (%IDPPH) compared to the initial concentration of DPPH (control) according to the following expression:(2) IDPPH (%)=ABSCTRL−ABSsample/ABSCTRL∗100 where ABSCTRL and ABSsample are the absorbance at 517 nm in the control and in the presence of samples, respectively.
The obtained IDPPH percentages allowed us to calculate the IC50 values using Graph-Pad Prism 9 software (GraphPad Inc., San Diego, CA, USA). Trolox was employed as a positive control, while caffeine and theophylline were reference compounds.

[18] = tested on: Staphylococcus aureus (ATCC 23235); set-up: method as in doi:10.1186/s40543-021-00294-2; settings: literature data ref 75; cited from earlier work
[19] = tested on: Escherichia coli (ATCC 25922); set-up: method as in PMID 36179970; settings: literature data ref 74; cited from earlier work
[20] = tested on: Enterococcus faecalis (ATCC 19433); set-up: method as in PMID 24586598; settings: literature data ref 78; cited from earlier work
[21] = tested on: Klebsiella pneumoniae (ATCC 13883); set-up: method as in PMID 35203751; settings: literature data ref 77; cited from earlier work
[22] = tested on: Staphylococcus epidermidis (ATCC 14990); set-up: method as in PMID 16556639; settings: literature data ref 76; cited from earlier work

## CC(=O)[O][Ag-][c]1n(C)c2c(c(=O)n(C)c(=O)n2C)[n+]1CCO [AgL3OAc, 1,3,7-Trimethylxanthin-9-[(2-hydroxy)ethyl)-8-ylidene]Ag(I) Acetate]
[1]
  Reduction in NO production: about 14.35%
[2]
  COX-1 protein expression level: no difference in protein expression level
[3]
  M.B.C. K. pneumoniae: > 200 µg/mL
  M.I.C. K. pneumoniae: 150 µg/mL
[4]
  M.B.C. E. coli: > 200 µg/mL
[5]
  IC50: > 100 µM
[6]
  IC50: > 100 µM
[7]
  IC50: > 500 µM
[8]
  Reduction in COX-2 expression (fluorescence): about 60%
[9]
  NF-κB intracellular localization: mostly cytoplasmic
[10]
  IC50: > 100 µM
[11]
  iNOS expression level: net reduction in iNOS expression
[12]
  M.B.C. S. typhimurium: > 200 µg/mL
  M.I.C. S. typhimurium: 150 µg/mL
[13]
  M.B.C. P. aeruginosa: > 200 µg/mL
  M.I.C. P. aeruginosa: 150 µg/mL
[14]
  M.B.C. E. faecalis: > 200 µg/mL
  M.I.C. E. faecalis: 150 µg/mL
[15]
  M.B.C. S. epidermidis: > 125 µg/mL
  M.I.C. S. epidermidis: 100 µg/mL
[16]
  M.B.C. S. aureus: > 200 µg/mL
  M.I.C. S. aureus: 125 µg/mL
[17]
  IC50: > 500 µM

## CC1(C)S[C@@H]2[C@H](NC(=O)[C@H](N)c3ccccc3)C(=O)N2[C@H]1C(=O)O [Ampicillin]
[18]
  M.B.C. S. aureus: 1/(1) [75] µg/mL
  M.I.C. S. aureus: 1/(1) [75] µg/mL
[19]
  M.B.C. E. coli: 4 µg/mL
  M.I.C. E. coli: 2 µg/mL

## Cn1c(=O)c2c(n(C)[c]([Au-][I])[n+]2CCO)n(C)c1=O [AuL3]
[1]
  Reduction in NO production: ~14.12%
[2]
  COX-1 protein expression level: no difference in protein expression level
[3]
  M.I.C. K. pneumoniae: >200 µg/mL
[4]
  M.I.C. E. coli: >200 µg/mL
[5]
  IC50: > 100 µM
[6]
  IC50: > 100 µM
[7]
  IC50: > 500 µM
[8]
  Reduction in COX-2 expression (fluorescence): about 40%
[9]
  NF-κB intracellular localization: mostly cytoplasmic
[10]
  IC50: > 100 µM
[12]
  M.I.C. S. typhimurium: >200 µg/mL
[13]
  M.I.C. P. aeruginosa: >200 µg/mL
[14]
  M.I.C. E. faecalis: >200 µg/mL
[15]
  M.I.C. S. epidermidis: >200 µg/mL
[16]
  M.I.C. S. aureus: >200 µg/mL
[17]
  IC50: > 500 µM

## CNC(C)C1CCC(N)C(OC2C(N)CC(N)C(OC3OCC(C)(O)C(NC)C3O)C2O)O1 (stereo not drawn) [Gentamicin]
[20]
  M.B.C. E. faecalis: 128 µg/mL
  M.I.C. E. faecalis: 4 µg/mL
[21]
  M.B.C. K. pneumoniae: > 40 µg/mL
  M.I.C. K. pneumoniae: 1.25 µg/mL
[22]
  M.B.C. S. epidermidis: 16 to 64 µg/mL
  M.I.C. S. epidermidis: 8 to 32 µg/mL

## COc1ccc2c(c1)c(CC(=O)O)c(C)n2C(=O)c1ccc(Cl)cc1 [indomethacin, reference compound]
[1]
  Reduction in NO production: about 11.23%
[2]
  COX-1 protein expression level: no difference in protein expression level
[8]
  Reduction in COX-2 expression (fluorescence): about 30%
[9]
  NF-κB intracellular localization: higher cytoplasmic localization of NF-κB
[11]
  iNOS expression level: lower, reaching those obtained with the CTRL cells
